Laboratory results published in patent US4977139A, “Aqueous elcatonin solution composition” (Toyo Jozo Company, Ltd., priority 1988, dated 1990).

Test: Severe test against heat (storage at 45° C. for 3 months, residual rate by HPLC)
Format: physicochemical
Description: In preparation of 0.1 mM sodium acetate pH buffer of pH 5.5 in Example 2, four kinds of solutions were prepared so that concentration of sodium chloride was 3 mM, 10 mM, 154 mM and 500 mM. Elcatonin was dissolved therein so that elcatonin concentration was 7 μg/ml. Each of the compositions was filled in an ampule in the same manner as in Example 1 to prepare elcatonin injections having four kinds of ionic strength. The resulting elcatonin injections were stored at 45° C. for 3 months and residual rate was obtained under the same conditions as in Test Example 1.

- Residual rate (%) (NaCl 3 mM, ionic strength 0.003, 0.1 mM sodium acetate pH 5.5, elcatonin 7 μg/ml): 50%
- Residual rate (%) (NaCl 10 mM, ionic strength 0.010, 0.1 mM sodium acetate pH 5.5, elcatonin 7 μg/ml): 79%
- Residual rate (%) (NaCl 154 mM, ionic strength 0.154, 0.1 mM sodium acetate pH 5.5, elcatonin 7 μg/ml): 98%
- Residual rate (%) (NaCl 500 mM, ionic strength 0.500, 0.1 mM sodium acetate pH 5.5, elcatonin 7 μg/ml): 97%
Substance: 1-butyric acid-7-(L-2-aminobutyric acid)-26- o L-aspartic acid-27-L-valine-29-L-alanine-calcitonin (salmon) [Elcatonin]
